# Source: US20100311835A1, “CIS-9, TRANS-11 ISOMER OF CONJUGATED LINOLEIC ACID (CLA) FOR TREATING INFLAMMATORY DISEASES” (COGNIS IP MANAGEMENT GMBH, priority 2003, published 2010)
# What was measured:
# [1] = test system: BEAS-2B; experiment: Proliferation of LPS/serum-stimulated cells (cell numbers after 24 h); assay type: cell-based, human; conditions: for % inhibition of proliferation: BEAS-2B, 24 h
# Protocol: (§1) • Cell cultures. The transformed human bronchial epithelial cell line BEAS-2B (Clonetics Cell Systems, St. Katharinen, Germany) and the normal human bronchial epithelial cell line in primary culture (American Type Culture Collection, Manassas, Va., USA) were cultured in T-25-tissue flasks in bronchial/tracheal epithelial cell basal medium (BEBM) supplemented with a variety of growth factors including bovine pituitary extract (0,052 mg/mL), human recombinant epidermal growth factor (0.5 ng/mL), hydrocortisone (0.5 μg/mL), epinephrine (0.5 μg/mL), transferrin (0.01 mg/mL), insulin (5 μg/mL), retinoic acid (0.1 ng/mL), triiodthyronine (6.5 ng/mL), gentamicin (0.05 mg/mL) and amphotericin (0.05 μg/mL), all purchased from Clonetics Cell Systems (St. Katharinen, Germany). Cultures were held at 37° C. in a humidified atmosphere of 5% CO2 in air and the medium was changed every other day. • Stimulation of cells and fatty acid supplementation. Cis-9,trans-11-CLA and linoleic acid (LA) were obtained from Matreya Inc. (Pleasant Gap, Pa., USA). Purified fatty acids in oil form were dissolved in 96% ethanol to give a 20-mM stock solution, which was further diluted in growth medium to produce the range of test concentrations (20 μg/mL, 10 μg/mL and 5 μg/mL CLA and LA, respectively). At confluence, the cells were detached by exposure to trypsin/EDTA solution (0.05/0.02% in Ca^2+- and Mg^2+-free phosphate buffered saline; Biochrom AG, Krefeld, Germany) and reseeded in 12-well plates at a concentration of 1×10^5 cells/well and cultured for 24 h to allow the cells to attach to the substratum. The medium was then replaced and a final volume of 1 ml of each CLA- and LA-test concentrations, supplemented with 5 μg LPS/mL (lipopolysaccharide, E-coli serotype 026:B6, Sigma, Taufkirchen, Germany) and 10% serum from allergic donors, was added to the wells. A similar volume of fatty acid-free medium containing the indicated stimuli and 0.4% ethanol, corresponding to the max. volume in experimental wells, was used in stimulated control. 1 ml of fresh growth medium containing 0.4% ethanol without any fatty acid and stimuli underwent the same measures of preparation and represented the unstimulated control. After incubation for 24 h at 37° C., supernatants were harvested, separated from non-adherent cells and cell debris by centrifugation (1300 rpm, 10 min), and kept at −20° C. until cytokine analysis. Cells were trypsinised to determine cell numbers and allow quantification of differences in cell proliferation in response to different treatments. • Measurement of IL-6 and IL-8 in cell culture supernatants. IL-6 and IL-8 production of epithelial cells were estimated in duplicate by enzyme-linked immunosorbent assay using commercially available ELISA kits (Pharmingen, Heidelberg, Germany) according to the manufacturer's guidelines. Standard curves and blank buffer were included in duplicate in each assay. When necessary, samples were diluted to fit into the assay range. Specific interleukin concentrations were expressed as picograms of interleukin per millilitre. • Estimation of cytokine gene expression with RT-PCR. Cultures of BEAS-2B and NHBE at an initial density of 1×10^5 cells/well were stimulated as described above and treated with cis-9,trans-11-CLA or LA in the highest concentration (20 μg/mL) for 4 h or 12 h before total cellular RNA was isolated for cytokine gene expression analysis by reverse transcriptase-polymerase chain reaction. Total RNA preparations were performed by DNase treatment according to the standard protocol of the High-Pure™ RNA isolation kit from Roche (Mannheim, Germany). For RT-PCR analysis, first strand cDNA was synthesized from extracted RNA using random primers, reagents and conditions supplied in the ProSTAR™ First-Strand RT-PCR kit from Stratagene (Amsterdam, Netherlands). One-tenth of the synthesized cDNA was subjected to PCRamplification in a total volume of 25 μl. […]
# [2] = test system: NHBE; experiment: as above; assay type: cell-based, human; conditions: LPS/serum-stimulated
# Protocol: as §1
# [3] = test system: IL-6; experiment: IL-6 in cell culture supernatants by ELISA, stimulated BEAS-2B; assay type: cell-based, human; conditions: for pg IL (cytokine release/100.000 cells) / % inhibition of IL-6-secretion: BEAS-2B, 24 h; for % inhibition of IL-6-secretion: vs stimulated control+
# Protocol: as §1
# [4] = test system: IL-8; experiment: IL-8 in cell culture supernatants by ELISA, stimulated BEAS-2B; assay type: cell-based, human; conditions: for pg IL (cytokine release/100.000 cells) / % inhibition of IL-8-secretion: BEAS-2B, 24 h; for % inhibition of IL-8-secretion: vs stimulated control+
# Protocol: as §1
# [5] = test system: IL-6; experiment: IL-6 in cell culture supernatants by ELISA, stimulated NHBE; assay type: cell-based, human; conditions: 24 h; for % inhibition of IL-6-secretion: vs stimulated control+
# Protocol: as §1
# [6] = test system: IL-8; experiment: IL-8 in cell culture supernatants by ELISA, stimulated NHBE; assay type: cell-based, human; conditions: 24 h; for % inhibition of IL-8-secretion: vs stimulated control+
# Protocol: as §1
# [7] = test system: IL-6 mRNA; experiment: Quantification of IL-6 mRNA by RT-PCR in stimulated bronchial epithelial cells; assay type: cell-based, human; conditions: 20 μg/mL, 4 h and 12 h, LPS/serum-stimulated, RT-PCR with cyclophilin as internal standard
# Protocol: (§2) • Cell cultures. The transformed human bronchial epithelial cell line BEAS-2B (Clonetics Cell Systems, St. Katharinen, Germany) and the normal human bronchial epithelial cell line in primary culture (American Type Culture Collection, Manassas, Va., USA) were cultured in T-25-tissue flasks in bronchial/tracheal epithelial cell basal medium (BEBM) supplemented with a variety of growth factors including bovine pituitary extract (0,052 mg/mL), human recombinant epidermal growth factor (0.5 ng/mL), hydrocortisone (0.5 μg/mL), epinephrine (0.5 μg/mL), transferrin (0.01 mg/mL), insulin (5 μg/mL), retinoic acid (0.1 ng/mL), triiodthyronine (6.5 ng/mL), gentamicin (0.05 mg/mL) and amphotericin (0.05 μg/mL), all purchased from Clonetics Cell Systems (St. Katharinen, Germany). Cultures were held at 37° C. in a humidified atmosphere of 5% CO2 in air and the medium was changed every other day. • Stimulation of cells and fatty acid supplementation. […] Cells were trypsinised to determine cell numbers and allow quantification of differences in cell proliferation in response to different treatments. • Measurement of IL-6 and IL-8 in cell culture supernatants. […] Specific interleukin concentrations were expressed as picograms of interleukin per millilitre. • Estimation of cytokine gene expression with RT-PCR. […]
# [8] = test system: IL-8 mRNA; experiment: Quantification of IL-8 mRNA by RT-PCR in stimulated bronchial epithelial cells; assay type: cell-based, human; conditions: 20 μg/mL, 4 h and 12 h, LPS/serum-stimulated, RT-PCR with cyclophilin as internal standard
# Protocol: as §2
# [9] = test system: eosinophilic granuloctyes; experiment: Apoptosis of eosinophilic granulocytes in vitro; assay type: cell-based
# [10] = in vitro, compared to a placebo
smiles,measurement,setting,value
"CCCCCC/C=C/C=C\CCCCCCCC(=O)O (single isomer, unassigned) [CLA, cis-9,trans-11 isomer of conjugated linoleic acid]",% inhibition of proliferation,"[1]; 5 μg/mL, LPS/serum-stimulated",7.9±5.1%
same,% inhibition of proliferation,"[1]; 10 μg/mL, LPS/serum-stimulated",19.3±5.0%
same,% inhibition of proliferation,"[1]; 20 μg/mL, 5 μg LPS/mL + 10% serum from allergic donors",32.7±5.0%
same,inhibition of cell proliferation of bronchial epithelial cells (summary statement),"[1]; in vitro, epithelial cells, mainly bronchial epithelial cells",up to 30%
same,% inhibition of proliferation,[2]; 5 μg/mL,5.3 ± 3.7%
same,% inhibition of proliferation,[2]; 10 μg/mL,15.4±3.6%
same,% inhibition of proliferation,[2]; 20 μg/mL,17.4±2.8%
same,pg IL (cytokine release/100.000 cells),[3]; 5 μg/mL,983 ± 175 pg/100.000 cells
same,% inhibition of IL-6-secretion,[3]; 5 μg/mL,59.9±7.1%
same,pg IL (cytokine release/100.000 cells),[3]; 10 μg/mL,841 ± 184 pg/100.000 cells
same,% inhibition of IL-6-secretion,[3]; 10 μg/mL,69.7 ± 7.6%
same,pg IL (cytokine release/100.000 cells),[3]; 20 μg/mL,792 ± 152 pg/100.000 cells
same,% inhibition of IL-6-secretion,[3]; 20 μg/mL,76.4±4.4%
same,reduced expression of IL-6 (summary statement),[3]; [10],about 70%
same,pg IL (cytokine release/100.000 cells),[4]; 5 μg/mL,1774 ± 154 pg/100.000 cells
same,% inhibition of IL-8-secretion,[4]; 5 μg/mL,25.6±3.6%
same,pg IL (cytokine release/100.000 cells),[4]; 10 μg/mL,1667 ± 160 pg/100.000 cells
same,% inhibition of IL-8-secretion,[4]; 10 μg/mL,38.8 ± 5.2%
same,pg IL (cytokine release/100.000 cells),[4]; 20 μg/mL,1458 ± 136 pg/100.000 cells
same,% inhibition of IL-8-secretion,[4]; 20 μg/mL,55.2±5.2%
same,reduced expression of IL-8 (summary statement),[4]; [10],about 50%
same,pg IL (cytokine release/100.000 cells),[5]; 5 μg/mL,2049 ± 262 pg/100.000 cells
same,% inhibition of IL-6-secretion,[5]; 5 μg/mL,56.9±4.9%
same,pg IL (cytokine release/100.000 cells),[5]; 10 μg/mL,2062 ± 707 pg/100.000 cells
same,% inhibition of IL-6-secretion,[5]; 10 μg/mL,62.3 ± 10.2%
same,pg IL (cytokine release/100.000 cells),[5]; 20 μg/mL,1731 ± 387 pg/100.000 cells
same,% inhibition of IL-6-secretion,[5]; 20 μg/mL,68.6±5.3%
same,pg IL (cytokine release/100.000 cells),[6]; 5 μg/mL,6212 ± 513 pg/100.000 cells
same,% inhibition of IL-8-secretion,[6]; 5 μg/mL,33.3 ± 8.1%
same,pg IL (cytokine release/100.000 cells),[6]; 10 μg/mL,5659 ± 812 pg/100.000 cells
same,% inhibition of IL-8-secretion,[6]; 10 μg/mL,46.0±8.1%
same,pg IL (cytokine release/100.000 cells),[6]; 20 μg/mL,6793 ± 545 pg/100.000 cells
same,% inhibition of IL-8-secretion,[6]; 20 μg/mL,35.9 ± 11.4%
same,IL-6 mRNA accumulation compared with stimulated control (c+),[7],diminished
same,IL-8 mRNA accumulation compared with stimulated control (c+),[8],diminished
same,apoptosis of eosinophilic granulocytes,[9],support of apoptosis
